Laboratory results from patent US20100048523A1, “Compounds, Compositions and Methods for Treating Hormone-Dependent Maladies” (priority 2006, published 2010).

Experiments:
[1] = test system: p21−/− MCF-10A breast cancer cell lines; experiment: High-throughput cell-based growth inhibition screen, p21 knock-out (Erik) vs parental (Erin) cell lines; set-up: species or system human
[2] = test system: MCF-10A p21 knock out cell lines (ERα positive); experiment: Growth assay (crystal violet) of ERα positive MCF-10A p21−/− cells; type: cell-based, human; details: for growth (cell proliferation) in response to the substance: ERα positive MCF-10A p21−/− (p21 null)
Protocol: (§1) ERα positive MCF-10A (ERIN#9), pIRESpuro2 transfection control (−) control, and ERα positive MCF-10A p21−/− (1.6#4) cell lines were seeded in assay media (no EGF) and exposed to estrogen (E2), vehicle only, estrogen and Tamoxifen (E2+Tam), estrogen and Faslodex (E2+ICI), Tamoxifen alone (Tam) and Faslodex alone (ICI). Cells were grown for 1 week and stained with crystal violet. Results are representative of multiple clones including heterozygous controls, and assays were repeated three times for each clone.
(§2) The creation of a non-tumorigenic human breast epithelial cell line (MCF-10A) in which the p21 gene was deleted through targeted homologous recombination has been previously described. Because p21 has been implicated in Tamoxifen resistance, and the response of Tamoxifen in both parental MCF-10A cells and their p21−/− derivatives was assessed. MCF-10A cells are ERα negative and unresponsive to estrogen stimulation. In order to develop a model system to analyze the effects of estrogen and anti-estrogen signaling, MCF-10A cells and their p21−/− derivatives were stably transfected with a cDNA encoding for wild type ERα.
(§3) Unlike previous attempts to stably integrate ERα into the MCF-10A cell line, a cloning vector containing an internal ribosome entry site (IRES) was used to ensure high levels of wild type ERα expression. The full coding sequence of wild type ERα was PCR cloned into pIRESpuro2 (Clontech) and the absence of any coding mutations was verified by direct sequencing.
(§4) Cell lines were generated and grown with charcoal stripped dextran treated serum (Hyclone) and phenol red free medium to avoid any possible growth effects of estrogen in the medium.

[3] = test system: MCF-10A cells stably overexpressing ERα; experiment: Growth assay (crystal violet) of ERα positive MCF-10A cells; type: cell-based, human; details: for effect on estrogen-induced proliferation: ERα positive MCF-10A (p21+/+), with estrogen
Protocol: as §1, §2, §3, §4

[4] = test system: metastatic breast cancer (skin); experiment: Case report: metastatic breast cancer (skin) nodule under Tamoxifen; type: in vivo, human
[5] = test system: ER/PR positive breast cancers; details: adjuvant setting; cited from earlier work

Compound	targeting of tamoxifen resistant ER positive cells [1]	effect on estrogen-induced proliferation [3]	growth (cell proliferation) in response to the substance [2]	also measured
CC12CCC3c4ccc(O)cc4CCC3C1CCC21OCCO1 (stereo not shown) [Compound 233-D4]	target tamoxifen resistant ER positive cells	–	–	–
CC(=O)Oc1ccc2c(c1)CCC1C2CC[C@@]2(C)C1CCC21OCCO1 (stereo partly shown) [Compound 233-E09]	target tamoxifen resistant ER positive cells	–	–	–
C[C@]12CC[C@@H]3c4ccc(O)cc4C[C@@H](CCCCCCCCC[S+]([O-])CCCC(F)(F)C(F)(F)F)[C@H]3[C@@H]1CC[C@@H]2O (stereo partly shown) [Faslodex, fulvestrant]	–	inhibited	–	effect on proliferative effects of estrogen ([2]; p21−/− cell lines, with estrogen): could still inhibit
O=C(c1ccc(OCCN2CCCCC2)cc1)c1c(-c2ccc(O)cc2)sc2cc(O)ccc12 [Raloxifene]	–	behaved identically to Tamoxifen	not as pronounced as Tamoxifen's	–
CC/C(=C(\c1ccccc1)c1ccc(OCCN(C)C)cc1)c1ccccc1 [Tamoxifen]	–	inhibited	grew in response	growth inhibitory effect on p21 knock out cells ([2]; ERα positive MCF-10A p21−/−): resistant to the growth inhibitory effects; behaviour of recurrent skin nodule during Tamoxifen ([4]; 2003, in the presence of Tamoxifen): growing in the presence of Tamoxifen; behaviour of skin nodule after Tamoxifen cessation ([4]; one month after Tamoxifen cessation): went away after cessation; reduction of the risk of recurrence [5]: ≤ 47%
estrogen	–	–	–	proliferation in response to the substance ([3]; ERα positive MCF-10A, assay media without EGF, 1 week): proliferated in response to estrogen
